Holding throughout (format): cell-based
Data set [1] is described as follows: Alamar Blue cytotoxicity assay. Particulars: human, HeLa Luc705 cells; Alamar Blue cytotoxicity; read-out: TC50. As to the method: (§1) FIG. 1B-1E. Effects with SSOs. FIG. 1B Structure of UNC2383. FIG. 1C Compound 2383 enhances SSO effects. Cells were incubated in 24-well plates with 100 nM SSO623 or its mismatched control (MM) for 16 h in DMEM+10% FBS, rinsed and then treated with various concentrations of 2383 for 2 h. The cells were then rinsed and incubation continued for an additional 4 h in DMEM+10% FBS. Cells were rinsed twice in PBS and luciferase activity (RLU) and cell protein determined. The larger round symbol indicates the MM oligonucleotide. Means+/−SE. N=3. FIG. 1D Kinetics of 2383 action. Cells were preloaded with 100 nM SSO623 and then exposed to 2383 for various periods after which the compound was removed. The cells were further incubated and then luciferase and protein determined. The total time of incubation in each case was 6 h. FIG. 1E Cytotoxicity of 2383. HeLa Luc705 or NIH-3T3-MDR cells were exposed to 2383 as in (FIG. 1C) then incubated for 24 h in DMEM plus 10% FBS and tested using the Alamar Blue cytotoxicity assay. Means+/−SE. N=3.
(§2) FIG. 3. Effect and Cytotoxicity of Analogs. The effect of selected UNC2383 analogs on luciferase induction by SSO623 was measured as described in Methods and in the legend of FIG. 1B-1E. Cytotoxicity was measured using the Alamar Blue method as in FIG. 1E. MM10 is the effect of 10 uM compound in the presence of a mismatched oligonucleotide. Means and SE. N=3.
(§3) SSO-mediated luciferase induction assays were conducted as previously described. (18) In short, HeLaLuc705 cells in 24 well culture plates were preincubated with SSO623 followed by brief treatment with the small molecule; at intervals thereafter, luciferase activity and protein content were determined. ASO mediated inhibition of MDR1 gene expression utilized an Alexa 488 labeled anti-P-glycoprotein antibody and flow cytometry to measure Pgp expression as described. (20) The anti-MDR1 sequence is 5′-CCATCccgacctcgcGCTCC-3′(SEQ ID NO: 5) (all phosphorothiopate with 2-O-Me residues in capitals). Cytotoxicity of 2383 was monitored using the Alamar Blue assay. (30)

The next data set has as its system HeLa Luc705 cells. In words: Alamar Blue cytotoxicity assay. As to the method: as §1, §2, §3
The subject of another data set is HeLa Luc 705 cells. In words: Confocal microscopy of endomembrane permeability and oligonucleotide localization. Particulars: 2 h. As to the method:
FIG. 5A-5B. Effect on endomembrane permeability. FIG. 5A: HeLa Luc 705 cells (50 000) were seeded into glass-bottom dishes and incubated at 37° C. for attachment. Alexa 488-Dextran 10K (200 μg/mL) or TAMRA SSO 623 (2.5 μM) were added into the medium and the cells incubated for 24 h. Cells were washed with PBS and then placed back in the medium and treated with UNC2383 for 2 h or maintained as controls. Cells were rinsed after drug treatment. Live cells were imaged with an Olympus FV1200 or a Zeiss LSM710 confocal microscope. For the studies with Alexa 488 Dextran, the controls are shown in image panels a and b while cells treated with 10 μM UNC2383 are in image panels c and d. […] Images e and f are composites of TAMRA, Hoechst, and DIC images, and the pink coloration in f indicates overlap of the TAMRA and Hoechst fluorescence. Images are typical of three independent assays. Intensity settings were identical for fluorescence images with or without UNC2383. FIG. 5B quantitates the TAMRA fluorescence in the nucleus for controls versus cells treated with 5 μM UNC2383, as measured using Fiji software, with Hoechst stain used to delineate the nucleus (N=12).
FIG. 6. Confocal images of compound effects on nuclear distribution of a fluorescent oligonucleotide. […] Nuclei lacking fluorescence are indicated with gray arrows. […]
FIG. 7A-7B. […] Composite images showing TAMRA fluorescence, GFP, and DIC are provided. […]
Effects of UNC2383 on endosome stability were monitored in cell culture models as previously described. […] Live cells were imaged by fluorescence confocal microscopy with or without treatment with UNC2383 or its analogs. […] Co-localization of TAMRA labeled SSO 623 with marker proteins was quantitated using Fiji (ImageJ) software and expressed as a Manders' Correlation Coefficient. […] EGFP protein expression was monitored by immunostaining with an anti-EGFP antibody (Abcam) using techniques previously described. (3) EGFP immunostaining was analyzed using a Leica SP2 confocal microscope with acquisition parameters constant throughout the study: images were processed with Adobe Photoshop software. […]

A further data set has as its system NIH-3T3-MDR cells. In words: Alamar Blue cytotoxicity assay. Conditions: 2 h exposure, then 24 h, FIG. 1E. As to the method: as §1
SSO-mediated luciferase induction assays were conducted as previously described. (18) In short, HeLaLuc705 cells in 24 well culture plates were preincubated with SSO623 followed by brief treatment with the small molecule; at intervals thereafter, luciferase activity and protein content were determined. […] Cytotoxicity of 2383 was monitored using the Alamar Blue assay. […]
For orientation: Resazurin is reduced to fluorescent resorufin, in cell work by metabolically active cells.

For `O=C(Nc1nc2ccccc2n1CCN1CCCC1)c1cc2cc(Cl)ccc2o1` [UNC2383], the CC50 at 2 h in data set [1] is 15 µM. For the same compound, in the data set on HeLa Luc705 cells, the “window between effective and toxic concentrations compared to UNC10217938” value is recorded as “narrower”. In addition, the “concentrations showing little toxicity” value in the data set with HeLa Luc705 cells (2 h exposure, then 24 h, FIG. 1E) was at most 10 µM; in the data set on NIH-3T3-MDR cells, at most 10 µM. The TC50/EC50 with HeLa Luc705 cells (ratio of cytotoxicity TC50 to luciferase induction EC50) came out at 7.5. In addition, the “relocalization of TAMRA labeled SSO to the nucleus” value with HeLa Luc 705 cells (5 μM) is recorded as “partial but substantial relocalization”. Further, the “colocalization of TAMRA-SSO with late endosomes and lysosomes (Manders' Correlation Coefficient)” value in the data set with HeLa Luc 705 cells (5 μM, GFP-Rab7, GFP-LAMP1) is “substantially reduced”. Besides, the “release of Alexa 488-Dextran from vesicular entrapment” value in the data set with HeLa Luc 705 cells (10 μM) is recorded as “partial release”.

Source of the values: patent publication US11040056B2, “Benzimidazoles that enhance the activity of oligonucleotides” (The University of North Carolina at Chapel Hill, priority 2018, dated 2021).
